{"source": "PubChem BioAssay (NCI)", "assay_in_all_cases": "NCI-60 cell line screen, 384-well format", "key": {"[1]": {"system": "OVCAR-4 ovarian"}, "[2]": {"system": "HS 578T breast"}, "[3]": {"system": "EKVX NSCLC"}, "[4]": {"system": "SK-MEL-2 melanoma"}, "[5]": {"system": "SK-OV-3 ovarian"}, "[6]": {"system": "NCI-H322M lung"}, "[7]": {"system": "SW-620 colon"}, "[8]": {"system": "NCI-H226 lung"}, "[9]": {"system": "U251 glioblastoma"}, "[10]": {"system": "786-0 renal"}, "[11]": {"system": "BT-549 breast"}, "[12]": {"system": "SF-539 CNS"}, "[13]": {"system": "SK-MEL-28 melanoma"}, "[14]": {"system": "HOP-62 NSCLC"}, "[15]": {"system": "HT29 colon"}, "[16]": {"system": "TK-10 renal"}, "[17]": {"system": "LOX IMVI melanoma"}, "[18]": {"system": "OVCAR-8 ovarian"}, "[19]": {"system": "NCI-H460 NSCLC"}, "[20]": {"system": "SF-295 CNS"}, "[21]": {"system": "A498 renal"}, "[22]": {"system": "NCI-H23 lung"}, "[23]": {"system": "SNB-19 CNS"}, "[24]": {"system": "UACC-62 melanoma"}, "[25]": {"system": "HCT-15 colon"}, "[26]": {"system": "NCI/ADR-RES ovarian"}, "[27]": {"system": "ACHN renal"}, "[28]": {"system": "T-47D breast"}, "[29]": {"system": "CCRF-CEM leukemia"}, "[30]": {"system": "IGROV1 ovarian"}, "[31]": {"system": "SK-MEL-5 melanoma"}, "[32]": {"system": "OVCAR-3 ovarian"}, "[33]": {"system": "UACC-257 melanoma"}, "[34]": {"system": "RXF 393 renal"}, "[35]": {"system": "KM12 colon"}, "[36]": {"system": "PC-3 prostate"}, "[37]": {"system": "MCF7 breast"}, "[38]": {"system": "CAKI-1 renal"}, "[39]": {"system": "MALME-3M melanoma"}, "[40]": {"system": "SN12C renal"}, "[41]": {"system": "HCT-116 colon"}, "[42]": {"system": "MDA-MB-231 breast"}, "[43]": {"system": "NCI-H522 lung"}, "[44]": {"system": "MDA-MB-435 melanoma"}, "[45]": {"system": "SNB-75 CNS"}, "[46]": {"system": "COLO 205 colon"}, "[47]": {"system": "HOP-92 NSCLC"}}, "note": "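GI50 marks 50% less growth. TGI denotes the concentration required for complete inhibition of growth.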"}
{"compound": "C[C@H](N)C(=O)N1C[C@H](CCCB(O)O)[C@](N)(C(=O)O)C1", "values": [{"measurement": "GI50", "setting": "[1]", "result": "> 100", "unit": "µM"}, {"measurement": "TGI", "setting": "[1]", "result": "> 100", "unit": "µM"}, {"measurement": "GI50", "setting": "[2]", "result": "> 100", "unit": "µM"}, {"measurement": "TGI", "setting": "[2]", "result": "> 100", "unit": "µM"}, {"measurement": "GI50", "setting": "[3]", "result": "> 100", "unit": "µM"}, {"measurement": "TGI", "setting": "[3]", "result": "> 100", "unit": "µM"}, {"measurement": "GI50", "setting": "[4]", "result": "> 100", "unit": "µM"}, {"measurement": "TGI", "setting": "[4]", "result": "> 100", "unit": "µM"}, {"measurement": "GI50", "setting": "[5]", "result": "> 100", "unit": "µM"}, {"measurement": "TGI", "setting": "[5]", "result": "> 100", "unit": "µM"}, {"measurement": "GI50", "setting": "[6]", "result": "> 100", "unit": "µM"}, {"measurement": "TGI", "setting": "[6]", "result": "> 100", "unit": "µM"}, {"measurement": "GI50", "setting": "[7]", "result": "> 100", "unit": "µM"}, {"measurement": "TGI", "setting": "[7]", "result": "> 100", "unit": "µM"}, {"measurement": "GI50", "setting": "[8]", "result": "> 100", "unit": "µM"}, {"measurement": "TGI", "setting": "[8]", "result": "> 100", "unit": "µM"}, {"measurement": "GI50", "setting": "[9]", "result": "> 100", "unit": "µM"}, {"measurement": "TGI", "setting": "[9]", "result": "> 100", "unit": "µM"}, {"measurement": "GI50", "setting": "[10]", "result": "> 100", "unit": "µM"}, {"measurement": "TGI", "setting": "[10]", "result": "> 100", "unit": "µM"}, {"measurement": "GI50", "setting": "[11]", "result": "> 100", "unit": "µM"}, {"measurement": "TGI", "setting": "[11]", "result": "> 100", "unit": "µM"}, {"measurement": "GI50", "setting": "[12]", "result": "> 100", "unit": "µM"}, {"measurement": "TGI", "setting": "[12]", "result": "> 100", "unit": "µM"}, {"measurement": "GI50", "setting": "[13]", "result": "> 100", "unit": "µM"}, {"measurement": "TGI", "setting": "[13]", "result": "> 100", "unit": "µM"}, {"measurement": "GI50", "setting": "[14]", "result": "> 100", "unit": "µM"}, {"measurement": "TGI", "setting": "[14]", "result": "> 100", "unit": "µM"}, {"measurement": "GI50", "setting": "[15]", "result": "> 100", "unit": "µM"}, {"measurement": "TGI", "setting": "[15]", "result": "> 100", "unit": "µM"}, {"measurement": "GI50", "setting": "[16]", "result": "> 100", "unit": "µM"}, {"measurement": "TGI", "setting": "[16]", "result": "> 100", "unit": "µM"}, {"measurement": "GI50", "setting": "[17]", "result": "> 100", "unit": "µM"}, {"measurement": "TGI", "setting": "[17]", "result": "> 100", "unit": "µM"}, {"measurement": "GI50", "setting": "[18]", "result": "> 100", "unit": "µM"}, {"measurement": "TGI", "setting": "[18]", "result": "> 100", "unit": "µM"}, {"measurement": "GI50", "setting": "[19]", "result": "> 100", "unit": "µM"}, {"measurement": "TGI", "setting": "[19]", "result": "> 100", "unit": "µM"}, {"measurement": "GI50", "setting": "[20]", "result": "> 100", "unit": "µM"}, {"measurement": "TGI", "setting": "[20]", "result": "> 100", "unit": "µM"}, {"measurement": "GI50", "setting": "[21]", "result": "> 100", "unit": "µM"}, {"measurement": "TGI", "setting": "[21]", "result": "> 100", "unit": "µM"}, {"measurement": "GI50", "setting": "[22]", "result": "> 100", "unit": "µM"}, {"measurement": "TGI", "setting": "[22]", "result": "> 100", "unit": "µM"}, {"measurement": "GI50", "setting": "[23]", "result": "> 100", "unit": "µM"}, {"measurement": "TGI", "setting": "[23]", "result": "> 100", "unit": "µM"}, {"measurement": "GI50", "setting": "[24]", "result": "> 100", "unit": "µM"}, {"measurement": "TGI", "setting": "[24]", "result": "> 100", "unit": "µM"}, {"measurement": "GI50", "setting": "[25]", "result": "> 100", "unit": "µM"}, {"measurement": "TGI", "setting": "[25]", "result": "> 100", "unit": "µM"}, {"measurement": "GI50", "setting": "[26]", "result": "> 100", "unit": "µM"}, {"measurement": "TGI", "setting": "[26]", "result": "> 100", "unit": "µM"}, {"measurement": "GI50", "setting": "[27]", "result": "> 100", "unit": "µM"}, {"measurement": "TGI", "setting": "[27]", "result": "> 100", "unit": "µM"}, {"measurement": "GI50", "setting": "[28]", "result": "> 100", "unit": "µM"}, {"measurement": "TGI", "setting": "[28]", "result": "> 100", "unit": "µM"}, {"measurement": "GI50", "setting": "[29]", "result": "> 100", "unit": "µM"}, {"measurement": "TGI", "setting": "[29]", "result": "> 100", "unit": "µM"}, {"measurement": "GI50", "setting": "[30]", "result": "> 100", "unit": "µM"}, {"measurement": "TGI", "setting": "[30]", "result": "> 100", "unit": "µM"}, {"measurement": "GI50", "setting": "[31]", "result": "> 100", "unit": "µM"}, {"measurement": "TGI", "setting": "[31]", "result": "> 100", "unit": "µM"}, {"measurement": "GI50", "setting": "[32]", "result": "> 100", "unit": "µM"}, {"measurement": "TGI", "setting": "[32]", "result": "> 100", "unit": "µM"}, {"measurement": "GI50", "setting": "[33]", "result": "> 100", "unit": "µM"}, {"measurement": "TGI", "setting": "[33]", "result": "> 100", "unit": "µM"}, {"measurement": "GI50", "setting": "[34]", "result": "> 100", "unit": "µM"}, {"measurement": "TGI", "setting": "[34]", "result": "> 100", "unit": "µM"}, {"measurement": "GI50", "setting": "[35]", "result": "> 100", "unit": "µM"}, {"measurement": "TGI", "setting": "[35]", "result": "> 100", "unit": "µM"}, {"measurement": "GI50", "setting": "[36]", "result": "> 100", "unit": "µM"}, {"measurement": "TGI", "setting": "[36]", "result": "> 100", "unit": "µM"}, {"measurement": "GI50", "setting": "[37]", "result": "> 100", "unit": "µM"}, {"measurement": "TGI", "setting": "[37]", "result": "> 100", "unit": "µM"}, {"measurement": "GI50", "setting": "[38]", "result": "> 100", "unit": "µM"}, {"measurement": "TGI", "setting": "[38]", "result": "> 100", "unit": "µM"}, {"measurement": "GI50", "setting": "[39]", "result": "> 100", "unit": "µM"}, {"measurement": "TGI", "setting": "[39]", "result": "> 100", "unit": "µM"}, {"measurement": "GI50", "setting": "[40]", "result": "> 100", "unit": "µM"}, {"measurement": "TGI", "setting": "[40]", "result": "> 100", "unit": "µM"}, {"measurement": "GI50", "setting": "[41]", "result": "> 100", "unit": "µM"}, {"measurement": "TGI", "setting": "[41]", "result": "> 100", "unit": "µM"}, {"measurement": "GI50", "setting": "[42]", "result": "> 100", "unit": "µM"}, {"measurement": "TGI", "setting": "[42]", "result": "> 100", "unit": "µM"}, {"measurement": "GI50", "setting": "[43]", "result": "> 100", "unit": "µM"}, {"measurement": "TGI", "setting": "[43]", "result": "> 100", "unit": "µM"}, {"measurement": "GI50", "setting": "[44]", "result": "> 100", "unit": "µM"}, {"measurement": "TGI", "setting": "[44]", "result": "> 100", "unit": "µM"}, {"measurement": "GI50", "setting": "[45]", "result": "> 100", "unit": "µM"}, {"measurement": "TGI", "setting": "[45]", "result": "> 100", "unit": "µM"}, {"measurement": "GI50", "setting": "[46]", "result": "> 92", "unit": "µM"}, {"measurement": "TGI", "setting": "[46]", "result": "> 100", "unit": "µM"}, {"measurement": "GI50", "setting": "[47]", "result": "> 100", "unit": "µM"}, {"measurement": "TGI", "setting": "[47]", "result": "> 100", "unit": "µM"}]}
